The source of these data is article PMC10385850, “Modified Hederagenin Derivatives Demonstrate Ex Vivo Anthelmintic Activity against Fasciola hepatica” (Pharmaceutics, 2023).

The nature of series [1]: MTT cell viability assay on MDBK cells. Format: cell-based, bovine. As to conditions: bovine, MDBK cells (Madin–Darby bovine kidney); MDBK cells, MTT, 24 h exposure; read-out: CC50 with 95% CI on MDBK cells (cytotoxicity). On the procedure:
MTT cell viability assays were performed on Madin–Darby bovine kidney (MDBK cells) for the five selected hederagenin derivatives (MC014, MC035, MC042, MC055 and MC062) using final concentrations of 100 μM, 75 μM, 50 μM, 25 μM, 10 μM, 5 μM and 1 μM (in 1% DMSO). Negative (1% v/v Triton X-100, Sigma-Aldrich, UK) and positive (1% v/v DMSO or media only) controls were included. The protocol was followed as previously described. Absolute EC50 values were calculated from the corrected absorbance of replicates by non-linear regression, after log transformation of concentrations and data normalization (where DMSO values represents 0% inhibition and TX-100 values represent 100% inhibition) using GrapPad Prism 8.
On the technique in general: Tetrazolium assays rely on reduction of a dye to a coloured formazan, in cell work by metabolically active cells.

In series [2] the test system is F. hepatica newly excysted juveniles (NEJs), Italian strain. As to the kind of experiment: Ex vivo screen against newly excysted juveniles (NEJs), phenotype and motility scoring. As to conditions: 10 µM. Format: cell-based, Fasciola hepatica. The method in brief:
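Newly excysted juveniles of the Italian strain of F. hepatica were obtained by excysting metacercariae and exposed ex vivo to test compounds at 10 μM final concentration in 0.1% DMSO. Controls were 0.1% DMSO (negative) and 10 μM TCBZ in 0.1% DMSO (positive). Motility was scored from 1 (good/normal) to 5 (no movement), and ultrastructural phenotype changes were scored with an established matrix.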

The subject of series [3] is wild strain adult F. hepatica. In words: Ex vivo motility assay on adult liver flukes (wild strain). The series is classed as cell-based, Fasciola hepatica. As to conditions: 40 µM. The method in brief: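 Wild-strain adult F. hepatica of unknown provenance (n = 4 per condition) were exposed ex vivo to 40 µM compound in 0.4% DMSO for 72 h. Motility was scored from 1 (normal) to 6 (no movement/dead).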

For series [4], the system named is adult F. hepatica flukes (Italian strain). As to the kind of experiment: Ex vivo dose response motility assay on adult liver flukes (Italian strain). The series is classed as cell-based, Fasciola hepatica. On the procedure:
The collection, ex vivo culturing and screening of adult liver fluke (Italian strain; n = 3/condition) was previously described. Dose response assays (40 µM, 13.3 µM and 4.4 µM) were conducted for MC014, MC042, MC035, MC055 and MC062 with motility scores recorded at 24, 48 and 72 h (Table S6).

The test system of series [5] is immature F. hepatica flukes (Italian strain). As to the kind of experiment: Ex vivo motility assay on immature liver flukes (Italian strain), single concentration and dose response. Format: cell-based, Fasciola hepatica. As to conditions: 40 µM.
A further series has as its system F. hepatica. The arrangement: method as in PMID 4034744. As to conditions: cited from earlier work.

By CC50 is commonly meant the concentration at which the toxic effect on the cells reaches its halfway point. The EC50 is the midpoint of the concentration-response curve. `CC1(C)CC[C@]2(NC(=O)N3CCCC3)CC[C@]3(C)C(=CCC4[C@@]5(C)CC[C@H](O)[C@@](C)(CO)C5CC[C@]43C)C2C1` (stereo partly drawn) [MC055, N-((4aS,6aS,6bR,9R,10S,12aR)-10-Hydroxy-9-(hydroxymethyl)-2,2,6a,6b,9,12a-hexamethyl-1,3,4,5,6,6a,6b,7,8,8a,9,10,11,12,12a,12b,13,14b-octadecahydropicen-4a(2H)-yl)pyrrol-idine-1-carboxamide]: the CC50 at 24 h in series [1] is 34.7 µM. Moreover, the “Average motility of 25 NEJs with 95% CI, 24 hours” value in series [2] (24 h, motility score 1 good/normal to 5 no movement) is on record as 5.00 (5.0;5.0). The “Average phenotype of 25 NEJs with 95% CI, 24 hours” value in series [2] (24 h, ultrastructure score 1 normal to 6 dead or dissolved) is on record as 6.00 (6.0;6.0). The “Average motility of 25 NEJs with 95% CI, 48 hours” value in series [2] (48 h, motility score 1 good/normal to 5 no movement) is 5.00 (5.0;5.0). Besides, in series [2] (48 h, ultrastructure score 1 normal to 6 dead or dissolved), the “Average phenotype of 25 NEJs with 95% CI, 48 hours” value was 6.00 (6.0;6.0). For the same compound, the “Average motility of 25 NEJs with 95% CI, 72 hours” value in series [2] (72 h, motility score 1 good/normal to 5 no movement) was 5.00 (5.0;5.0). For the same compound, the “Average phenotype of 25 NEJs with 95% CI, 72 hours” value in series [2] (72 h, ultrastructure score 1 normal to 6 dead or dissolved) is 6.00 (6.0;6.0). The “Activity against NEJs (first screen), in words” value in series [2] (72 h co-culture) was “maximal alterations to both phenotype/ultrastructure and motility”. For the same compound, in series [3] (72 h), the “Effect on wild strain adult fluke motility, in words” value is listed as “partial paralysis”. Further, the “Average motility of 4 parasites with 95% CI at 72 hour time point” value in series [3] (wild strain adult flukes, score 1 good/normal to 6 no movement or dead) is given as 5.25 (4.7;5.7); in series [5] (72 h, immature flukes, score 1 to 5), 5.00 (5.0;5.0). Also, the “Average motility of 3 parasites treated with 4.4 µM, 24 hours” value in series [4] (4.4 µM, 24 h, adult flukes Italian strain, score 1 to 6) is given as 1.00 (1.0;1.0). Further, the “Average motility of 3 parasites treated with 4.4 µM, 48 hours” value in series [4] (4.4 µM, 48 h, adult flukes Italian strain, score 1 to 6) is 1.00 (1.0;1.0). The “Average motility of 3 parasites treated with 4.4 µM, 72 hours” value in series [4] (4.4 µM, 72 h, adult flukes Italian strain, score 1 to 6) is recorded as 3.00 (3.0;3.0). Besides, the “Average motility of 3 parasites treated with 13.3 µM, 24 hours” value in series [4] (13.3 µM, 24 h, adult flukes Italian strain, score 1 to 6) is recorded as 1.00 (1.0;1.0). Moreover, the “Average motility of 3 parasites treated with 13.3 µM, 48 hours” value in series [4] (13.3 µM, 48 h, adult flukes Italian strain, score 1 to 6) is 1.00 (1.0;1.0). Also, in series [4] (13.3 µM, 72 h, adult flukes Italian strain, score 1 to 6), the “Average motility of 3 parasites treated with 13.3 µM, 72 hours” value was 4.66 (3.3;5.9). For the same compound, the “Average motility of 3 parasites treated with 40 µM, 24 hours” value in series [4] (40 µM, 24 h, adult flukes Italian strain, score 1 to 6) is reported as 3.00 (3.0;3.0). Besides, in series [4] (40 µM, 48 h, adult flukes Italian strain, score 1 to 6), the “Average motility of 3 parasites treated with 40 µM, 48 hours” value is 3.66 (3.0;4.3). Besides, the “Average motility of 3 parasites treated with 40 µM, 72 hours” value in series [4] (40 µM, 72 h, adult flukes Italian strain, score 1 to 6) was 5.00 (5.0;5.0). Besides, in series [4] (CC50 in MDBK cells (24 h) / EC50 adult flukes 72 h), the “Selectivity Index (SI) on Adult Flukes SI=CC50/EC50, 72 hour” value was 5.72. Further, the EC50 in series [4] (Fasciola hepatica, adult flukes, motility, 72 h, read-out: EC50 with 95% CI on Adult Flukes (motility), 72 hour) was 6.06 µM. Further, the “Effect on adult fluke (Italian strain) movement, in words” value in series [4] (dose response, MC042 statement at 40 μM after 72 h) is “Decreased movement”. The “Average motility of 4 parasites with 95% CI at 24 hour time point” value in series [5] (24 h, immature flukes, score 1 normal to 5 no movement or death) is 2.75 (1.8;3.6). The “Average motility of 4 parasites with 95% CI at 48 hour time point” value in series [5] (48 h, immature flukes, score 1 to 5) is given as 5.00 (5.0;5.0). Further, the “Effect on immature fluke motility, in words” value in series [5] (by 72 h) is listed as “paralyzed the assayed immature flukes”.
For the compound `C[C@@H]1O[C@@H](O[C@H]2[C@H](O[C@H]3CC[C@@]4(C)[C@@H](CC[C@]5(C)[C@@H]4CC=C4[C@@H]6CC(C)(C)CC[C@]6(C(=O)O)CC[C@]45C)[C@]3(C)CO)OC[C@H](O)[C@@H]2O)[C@H](O)[C@H](O)[C@H]1O` [α-Hederin], the “Activity against F. hepatica, in words” value in the series with F. hepatica is given as “lethal activity”.
